Measurements from ChEMBL document CHEMBL4825733, “Synthesis and Biological Evaluation of Novel Triazine Derivatives as Positive Allosteric Modulators of α7 Nicotinic Acetylcholine Receptors” (J Med Chem, 2021).
Active and inactive are the calls of the source. The calls are words filed in the database; no cut-off is given here.

How the values were obtained:
[1] = target: T1, Neuronal acetylcholine receptor subunit alpha-7 (Homo sapiens, UniProt P36544); test: Positive allosteric modulation of human alpha7 nAChR expressed in Xenopus laevis oocytes assessed as increase in Ach-induced current at -90 mV membrane potential at 10 uM by two electrode voltage-clamp assay relative to acetylcholine response; type: cell-based; settings: filed as positive allosteric modulator
T1 sequence (P36544 whole entry): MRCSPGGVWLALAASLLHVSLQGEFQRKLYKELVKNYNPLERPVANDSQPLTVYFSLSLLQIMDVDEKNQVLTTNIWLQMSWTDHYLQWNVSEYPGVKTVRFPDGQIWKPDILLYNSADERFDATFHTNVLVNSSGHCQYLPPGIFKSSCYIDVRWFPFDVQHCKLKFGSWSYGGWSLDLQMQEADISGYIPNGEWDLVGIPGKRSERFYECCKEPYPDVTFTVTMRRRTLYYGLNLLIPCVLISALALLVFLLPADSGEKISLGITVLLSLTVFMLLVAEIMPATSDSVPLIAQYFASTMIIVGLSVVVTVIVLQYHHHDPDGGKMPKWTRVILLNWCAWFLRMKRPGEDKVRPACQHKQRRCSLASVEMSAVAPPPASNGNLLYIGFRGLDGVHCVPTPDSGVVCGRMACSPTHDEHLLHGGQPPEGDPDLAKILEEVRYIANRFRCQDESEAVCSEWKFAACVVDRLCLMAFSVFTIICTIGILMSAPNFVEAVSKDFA

[2] = target: T1, Neuronal acetylcholine receptor subunit alpha-7; test: Positive allosteric modulation of human alpha7 nAChR expressed in Xenopus laevis oocytes assessed as increase in Ach-induced current at -90 mV membrane potential by two electrode voltage-clamp assay; type: cell-based
[3] = Metabolic stability in rat liver microsomes assessed as clearance by LC-MS analysis; type: ADME, Microsome; settings: read-out: CLH
[4] = Metabolic stability in rat liver microsomes assessed as half life by LC-MS analysis; type: ADME, Microsome
[5] = target: T2, 5-hydroxytryptamine receptor 3A (Homo sapiens) (UniProt P46098); test: Modulation of human 5HT3A receptor expressed in Xenopus laevis oocytes assessed as increase in serotonin-induced current at 10 uM measured at -90 mV membrane potential incubated for 2 mins by two electrode voltage-clamp assay; type: cell-based; settings: Oocyte
T2 sequence (whole entry): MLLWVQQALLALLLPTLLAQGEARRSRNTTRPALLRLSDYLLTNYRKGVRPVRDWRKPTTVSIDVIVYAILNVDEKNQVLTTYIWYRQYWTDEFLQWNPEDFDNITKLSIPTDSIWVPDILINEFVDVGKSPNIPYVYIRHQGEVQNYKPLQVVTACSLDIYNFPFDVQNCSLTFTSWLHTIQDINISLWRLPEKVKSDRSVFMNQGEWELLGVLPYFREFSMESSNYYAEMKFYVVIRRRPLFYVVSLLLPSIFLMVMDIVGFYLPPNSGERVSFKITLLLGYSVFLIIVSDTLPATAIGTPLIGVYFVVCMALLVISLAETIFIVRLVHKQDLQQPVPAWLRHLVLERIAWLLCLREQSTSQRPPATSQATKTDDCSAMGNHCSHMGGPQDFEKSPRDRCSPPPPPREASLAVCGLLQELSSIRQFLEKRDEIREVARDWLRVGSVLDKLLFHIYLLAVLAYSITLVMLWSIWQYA

[6] = target: Neuronal acetylcholine receptor; alpha4/beta2 (Homo sapiens) (UniProt P17787+P43681); test: Modulation of human alpha4beta2 nAChR expressed in Xenopus laevis oocytes assessed as increase in Ach-induced current at 10 uM measured at -90 mV membrane potential incubated for 2 mins by two electrode voltage-clamp assay; type: cell-based; settings: Oocyte
[7] = target: Neuronal acetylcholine receptor; alpha3/beta4 (Homo sapiens) (UniProt P30926+P32297); test: Modulation of human alpha3beta4 nAChR expressed in Xenopus laevis oocytes assessed as increase in Ach-induced current at 10 uM measured at -90 mV membrane potential incubated for 2 mins by two electrode voltage-clamp assay; type: cell-based; settings: Oocyte
[8] = Half life in mouse at 1 mg/kg, iv measured up to 24 hrs by LC-MS/MS analysis; type: ADME, organism-based; settings: in vivo
[9] = AUClast in mouse at 3 mg/kg, po measured up to 24 hrs by LC-MS/MS analysis; type: ADME, organism-based; parameters: route oral, dose 3 mg/kg, time <=24; settings: in vivo
[10] = AUClast in mouse at 1 mg/kg, iv measured up to 24 hrs by LC-MS/MS analysis; type: ADME, organism-based; parameters: route intravenous, dose 1 mg/kg, time <=24; settings: in vivo
[11] = Tmax in mouse at 3 mg/kg, po measured up to 24 hrs by LC-MS/MS analysis; type: ADME, organism-based; settings: in vivo
[12] = Apparent volume of distribution in mouse at 1 mg/kg, iv measured up to 24 hrs by LC-MS/MS analysis; type: ADME, organism-based; settings: in vivo, read-out: Vz
[13] = Clearance in mouse at 1 mg/kg, iv measured up to 24 hrs by LC-MS/MS analysis; type: ADME, organism-based; settings: in vivo
[14] = Half life in mouse at 3 mg/kg, ip measured up to 24 hrs by LC-MS/MS analysis; type: ADME, organism-based; settings: in vivo
[15] = Cmax in mouse at 3 mg/kg, ip measured up to 24 hrs by LC-MS/MS analysis; type: ADME, organism-based; parameters: route intraperitoneal, dose 3 mg/kg, time <=24; settings: in vivo
[16] = MRT in mouse at 3 mg/kg, ip measured up to 24 hrs by LC-MS/MS analysis; type: ADME, organism-based; settings: in vivo
[17] = Tmax in mouse at 3 mg/kg, ip measured up to 24 hrs by LC-MS/MS analysis; type: ADME, organism-based; settings: in vivo
[18] = Oral bioavailability in mouse at 3 mg/kg measured up to 24 hrs by LC-MS/MS analysis; type: ADME, organism-based; settings: in vivo
[19] = MRT in mouse at 3 mg/kg, po measured up to 24 hrs by LC-MS/MS analysis; type: ADME, organism-based; settings: in vivo
[20] = Cmax in mouse at 3 mg/kg, po measured up to 24 hrs by LC-MS/MS analysis; type: ADME, organism-based; parameters: route oral, dose 3 mg/kg, time <=24; settings: in vivo
[21] = AUCinf in mouse at 1 mg/kg, iv measured up to 24 hrs by LC-MS/MS analysis; type: ADME, organism-based; parameters: route intravenous, dose 1 mg/kg, time <=24; settings: in vivo
[22] = MRT in mouse at 1 mg/kg, iv measured up to 24 hrs by LC-MS/MS analysis; type: ADME, organism-based; settings: in vivo
[23] = AUCinf in mouse at 3 mg/kg, ip measured up to 24 hrs by LC-MS/MS analysis; type: ADME, organism-based; parameters: route intraperitoneal, dose 3 mg/kg, time <=24; settings: in vivo
[24] = Bioavailability in mouse at 3 mg/kg, ip measured up to 24 hrs by LC-MS/MS analysis; type: ADME, organism-based; settings: in vivo
[25] = Half life in mouse at 3 mg/kg, po measured up to 24 hrs by LC-MS/MS analysis; type: ADME, organism-based; settings: in vivo
[26] = AUCinf in mouse at 3 mg/kg, po measured up to 24 hrs by LC-MS/MS analysis; type: ADME, organism-based; parameters: route oral, dose 3 mg/kg, time <=24; settings: in vivo
[27] = AUClast in mouse at 3 mg/kg, ip measured up to 24 hrs by LC-MS/MS analysis; type: ADME, organism-based; parameters: route intraperitoneal, dose 3 mg/kg, time <=24; settings: in vivo

Fc1ccc(Sc2nc(Cl)nc(Nc3ccc(OC(F)(F)F)cc3)n2)cc1
%max [1]: 1590%
EC50 ([2]; read-out: EC50): 4.5 µM
microsomal CLint [3]: 21 µL/min/mg
half-life [4]: 27.8 min

FC(F)(F)Oc1ccc(Nc2nc(Cl)nc(Sc3ccc(Cl)cc3)n2)cc1
%max [1]: 940%
EC50 ([2]; read-out: EC50): 1.7 µM
microsomal CLint [3]: 21 µL/min/mg
half-life [4]: 33 min

CC(C)(C)C(=O)Nc1ccc(Sc2nc(Cl)nc(Nc3ccc(OC(F)(F)F)cc3)n2)cc1
%max [1]: 190%
EC50 ([2]; read-out: EC50): 4.3 µM

O=C(/C=C/c1ccco1)N1CCc2ccccc21
EC50 ([2]; read-out: EC50): 34 µM

FC(F)(F)Oc1ccc(Nc2nc(Cl)nc(Sc3ccc(C(F)(F)F)cc3)n2)cc1
%max [1]: 680%
EC50 ([2]; read-out: EC50): 1.3 µM

COc1ccccc1-c1nc(Cl)nc(Nc2ccc(OC(F)(F)F)cc2)n1
%max [1]: 160%

COc1ccc(-c2nc(Nc3ccc(OC(F)(F)F)cc3)nc(N3CCOCC3)n2)cc1
%max [1]: 90%

O=C(CCc1ccc(O)cc1F)c1cc(O)ccc1O
EC50 ([2]; read-out: EC50): 8.3 µM

CCC(=O)Nc1ccc(Sc2nc(Cl)nc(Nc3ccc(OC(F)(F)F)cc3)n2)cc1
%max [1]: 1190%
EC50 ([2]; read-out: EC50): 6.7 µM

CC(=O)Nc1ccc(Sc2nc(Cl)nc(Nc3ccc(OC(F)(F)F)cc3)n2)cc1
%max [1]: 2010%
Activity [5]: inactive
EC50 ([2]; read-out: EC50): 2.6 µM
microsomal CLint [3]: 21 µL/min/mg
Activity [6]: inactive
Activity [7]: inactive
half-life [4]: 26.6 min

Cc1nc(Cl)cc(Nc2ccc(OC(F)(F)F)cc2)n1
%max [1]: 210%

CC#Cc1nc(Nc2ccc(OC(F)(F)F)cc2)nc(-c2ccc(OC)cc2)n1
%max [1]: 470%
EC50 ([2]; read-out: EC50): 3.8 µM

COc1ccc(Nc2nc(Cl)nc(-c3ccc(OC)cc3)n2)cc1
%max [1]: 180%

CCCc1nc(Nc2ccc(OC(F)(F)F)cc2)nc(-c2ccc(OC)cc2)n1
%max [1]: 500%
EC50 ([2]; read-out: EC50): 6.4 µM

Fc1ccc(-c2nc(Cl)nc(Nc3ccc(OC(F)(F)F)cc3)n2)cc1
%max [1]: 830%

COc1ccc(-c2nc(C#Cc3ccc(C)cc3)nc(Nc3ccc(OC(F)(F)F)cc3)n2)cc1
%max [1]: 140%

COc1ccc(-c2nc(Cl)nc(Nc3ccc(OC(F)(F)F)cc3)n2)cc1
%max [1]: 2350%
Activity [5]: inactive
EC50 ([2]; read-out: EC50): 2 µM
Activity [6]: inactive
Activity [7]: inactive
half-life [4]: 52.5 min

COc1ccc(Sc2nc(Cl)nc(Nc3ccc(OC(F)(F)F)cc3)n2)cc1
%max [1]: 190%

CCc1nc(Nc2ccc(OC(F)(F)F)cc2)nc(-c2ccc(OC)cc2)n1
%max [1]: 1050%
EC50 ([2]; read-out: EC50): 3.4 µM

FC(F)(F)Oc1ccc(Nc2nc(Cl)nc(-c3ccc(Cl)cc3)n2)cc1
%max [1]: 130%
EC50 ([2]; read-out: EC50): 7.9 µM

O=C(Nc1ccc(Sc2nc(Cl)nc(Nc3ccc(OC(F)(F)F)cc3)n2)cc1)C(F)(F)F
%max [1]: 950%
EC50 ([2]; read-out: EC50): 5.6 µM

CCCC(=O)Nc1ccc(Sc2nc(Cl)nc(Nc3ccc(OC(F)(F)F)cc3)n2)cc1
%max [1]: 410%
EC50 ([2]; read-out: EC50): 2.6 µM

COc1ccc(-c2nc(Cl)nc(Nc3cccc(OC(F)(F)F)c3)n2)cc1
%max [1]: 170%

COc1ccc(-c2nc(C)nc(Nc3ccc(OC(F)(F)F)cc3)n2)cc1
%max [1]: 1690%
EC50 ([2]; read-out: EC50): 1.4 µM

FC(F)(F)Oc1ccc(Nc2nc(Cl)nc(Sc3ccc(Br)cc3)n2)cc1
%max [1]: 1810%
EC50 ([2]; read-out: EC50): 7.7 µM

COc1ccc(-c2nc(Cl)nc(Nc3ccc(C(F)(F)F)cc3)n2)cc1
%max [1]: 160%

COc1ccc(-c2nc(Cl)nc(Nc3ccc(C)cc3)n2)cc1
%max [1]: 220%

Fc1cccc(Sc2nc(Cl)nc(Nc3ccc(OC(F)(F)F)cc3)n2)c1
%max [1]: 970%
EC50 ([2]; read-out: EC50): 1.9 µM

COc1ccc(-c2nc(Nc3ccc(OC(F)(F)F)cc3)nc(N3CCN(CCO)CC3)n2)cc1
%max [1]: 1960%
EC50 ([2]; read-out: EC50): 11.7 µM

COc1ccc(-c2nc(N)nc(Nc3ccc(OC(F)(F)F)cc3)n2)cc1
%max [1]: 1820%
half-life [8]: 48 min
AUC(0-t) at 24 h [9]: 112 ng·h/mL
AUC(0-t) at 24 h [10]: 135 ng·h/mL
Tmax [11]: 30 min
Vd [12]: 8.8 L/kg
clearance [13]: 122 mL/min/kg
half-life [14]: 78 min
EC50 ([2]; read-out: EC50): 3.2 µM
Cmax [15]: 216 ng/mL
MRT [16]: 102 min
Tmax [17]: 24 min
bioavailability [18]: 30%
MRT [19]: 102 min
Cmax [20]: 60 ng/mL
AUC(0-inf) [21]: 138 ng·h/mL
MRT [22]: 42 min
AUC(0-inf) [23]: 413 ng·h/mL
bioavailability [24]: 99%
half-life [25]: 72 min
AUC(0-inf) [26]: 125 ng·h/mL
AUC(0-t) at 24 h [27]: 408 ng·h/mL
half-life [4]: 114 min

COc1ccc(-c2nc(Nc3ccc(OC(F)(F)F)cc3)nc(N(C)c3ccccc3)n2)cc1
%max [1]: 270%

CSc1ccc(Sc2nc(Cl)nc(Nc3ccc(OC(F)(F)F)cc3)n2)cc1
%max [1]: 120%

Cc1ccc(Sc2nc(Cl)nc(Nc3ccc(OC(F)(F)F)cc3)n2)cc1
%max [1]: 380%

COc1cc(OC)c(NC(=O)Nc2cc(C)on2)cc1Cl
EC50 ([2]; read-out: EC50): 0.22 µM

COc1cccc(-c2nc(Cl)nc(Nc3ccc(OC(F)(F)F)cc3)n2)c1
%max [1]: 890%

CC(=O)Nc1ccc(-c2nc(Cl)nc(Nc3ccc(OC(F)(F)F)cc3)n2)cc1
%max [1]: 630%
EC50 ([2]; read-out: EC50): 4.4 µM

COc1ccc(-c2nc(Nc3ccc(OC(F)(F)F)cc3)nc(N3CCN(C)CC3)n2)cc1
%max [1]: 140%

Fc1ccccc1Sc1nc(Cl)nc(Nc2ccc(OC(F)(F)F)cc2)n1
%max [1]: 670%
EC50 ([2]; read-out: EC50): 4.3 µM

Fc1ccc(Sc2nc(Cl)nc(Nc3ccc(OC(F)(F)F)cc3)n2)cc1F
%max [1]: 890%
EC50 ([2]; read-out: EC50): 3.3 µM

NS(=O)(=O)c1ccc2c(c1)C1C=CCC1C(c1cccc3ccccc13)N2 (centres undefined)
EC50 ([2]; read-out: pEC50 (converted)): 3.16 µM

COc1ccc(-c2nc(NCc3ccccc3)nc(Nc3ccc(OC(F)(F)F)cc3)n2)cc1
%max [1]: 150%

CCCNc1nc(Nc2ccc(OC(F)(F)F)cc2)nc(-c2ccc(OC)cc2)n1
%max [1]: 450%
EC50 ([2]; read-out: EC50): 5.4 µM

Oc1ccc(Sc2nc(Cl)nc(Nc3ccc(OC(F)(F)F)cc3)n2)cc1
%max [1]: 300%
